Activity calls are given as the source filed them. The calls are words filed in the database; no cut-off is given here.
Experiments:
SH-SY5Y [1] = experiment: Cytotoxicity against human SH-SY5Y cells assessed as reduction of cell viability at 10 uM after 24 hrs; type: functional, cell-based
MCF7 [2] = experiment: Cytotoxicity against human MCF7 cells assessed as reduction of cell viability at 30 uM after 48 hrs; type: functional
SH-SY5Y [3] = experiment: Cytotoxicity against human SH-SY5Y cells assessed as reduction of cell viability at 30 uM after 48 hrs; type: functional
MCF7 [4] = experiment: Cytotoxicity against human MCF7 cells assessed as reduction of cell viability at 10 uM after 24 hrs; type: functional, cell-based
MCF7 [5] = experiment: Cytotoxicity against human MCF7 cells assessed as reduction of cell viability at 20 uM after 24 hrs; type: functional, cell-based
SH-SY5Y [6] = experiment: Cytotoxicity against human SH-SY5Y cells assessed as reduction of cell viability at 20 uM after 24 hrs; type: functional, cell-based
MCF7 [7] = experiment: Induction of morphological changes in human MCF7 cells assessed as change in volume of cell at 30 uM after 48 hrs; type: functional, cell-based
MCF7 [8] = experiment: Induction of morphological changes in human MCF7 cells assessed as change in perimeter of cell at 30 uM after 48 hrs; type: functional, cell-based
SH-SY5Y [9] = experiment: Induction of morphological changes in human SH-SY5Y cells assessed as change in volume of cell at 30 uM after 48 hrs; type: functional, cell-based
MCF7 [10] = experiment: Induction of morphological changes in human MCF7 cells assessed as change in cell shape at 30 uM after 48 hrs; type: functional, cell-based
SH-SY5Y [11] = experiment: Induction of morphological changes in human SH-SY5Y cells assessed as change in cell shape at 30 uM after 48 hrs; type: functional, cell-based
SH-SY5Y [12] = experiment: Induction of morphological changes in human SH-SY5Y cells assessed as change in perimeter of cell at 30 uM after 48 hrs; type: functional, cell-based
SH-SY5Y [13] = experiment: Induction of morphological changes in human SH-SY5Y cells assessed as cytoplasm vacuolization at 30 uM after 6 hrs; type: functional, cell-based
SH-SY5Y [14] = experiment: Induction of morphological changes in human SH-SY5Y cells assessed as cell swelling at 30 uM after 6 hrs; type: functional, cell-based
SH-SY5Y [15] = experiment: Induction of morphological changes in human SH-SY5Y cells assessed as increase in volume of nucleus at 30 uM after 6 hrs; type: functional, cell-based
MCF7 [16] = experiment: Induction of morphological changes in human MCF7 cells assessed as increase in refringency of the nucleoli at 30 uM after 6 hrs; type: functional, cell-based
SH-SY5Y [17] = experiment: Induction of morphological changes in human SH-SY5Y cells assessed as increase in refringency of the nucleoli at 30 uM after 6 hrs; type: functional, cell-based
MCF7 [18] = experiment: Induction of morphological changes in human MCF7 cells at 30 uM after 24 hrs; type: functional, cell-based
MCF7 [19] = experiment: Induction of morphological changes in human MCF7 cells assessed as cytoplasm vacuolization at 30 uM after 6 hrs; type: functional, cell-based
MCF7 [20] = experiment: Induction of morphological changes in human MCF7 cells assessed as increase in volume of nucleus at 30 uM after 6 hrs; type: functional, cell-based
MCF7 [21] = experiment: Induction of morphological changes in human MCF7 cells assessed as cell swelling at 30 uM after 6 hrs; type: functional, cell-based

Cn1cccc1C1=C(c2ccccc2)C(=O)N2C[C@H](O)C[C@@H]2C1
Activity (SH-SY5Y [1]): Active | Activity (MCF7 [2]): Active | Activity (SH-SY5Y [3]): Active | Activity (MCF7 [4]): Active | Activity (MCF7 [5]): Active | Activity (SH-SY5Y [6]): Active

COc1ccc(C2=C(c3ccccc3)C(=O)N3C[C@H](O)C[C@@H]3C2)cc1
Activity (SH-SY5Y [1]): Active | Activity (MCF7 [2]): Active | Activity (MCF7 [4]): Active | Activity (MCF7 [5]): Active | Activity (SH-SY5Y [6]): Active

O=C1C(c2ccccc2)=C(c2ccc(-c3ccccc3)cc2)C[C@@H]2C[C@@H](O)CN12
Activity (SH-SY5Y [1]): Active | Activity (MCF7 [2]): >70% | Activity (SH-SY5Y [3]): >70% | Activity (MCF7 [4]): Active | Activity (MCF7 [5]): Active | Activity (SH-SY5Y [6]): Active

Cn1cccc1C1=C(c2ccccc2)C(=O)N2C[C@H](O)C[C@H]2C1
Activity (SH-SY5Y [1]): Active | Activity (MCF7 [2]): Active | Activity (SH-SY5Y [3]): Active | Activity (MCF7 [4]): Active | Activity (MCF7 [5]): Active | Activity (SH-SY5Y [6]): Active

COc1ccc(C2=C(c3ccccc3)C(=O)N3C[C@H](O)C[C@H]3C2)cc1
Activity (SH-SY5Y [1]): Active | Activity (MCF7 [2]): Active | Activity (SH-SY5Y [3]): Active | Activity (MCF7 [4]): Active | Activity (MCF7 [5]): Active | Activity (SH-SY5Y [6]): Active

O=C1C(c2ccccc2)=C(c2ccc(Br)cc2)C[C@H]2C[C@@H](O)CN12
Activity (SH-SY5Y [1]): Active | Activity (MCF7 [2]): Active | Activity (MCF7 [4]): Active | Activity (MCF7 [5]): Active | Activity (SH-SY5Y [6]): Active

O=C1C(c2ccccc2)=C(c2ccc(-c3ccccc3)cc2)C[C@H]2C[C@@H](O)CN12
Activity (SH-SY5Y [1]): Active | Activity (MCF7 [7]): Active | Activity (MCF7 [8]): Active | Activity (SH-SY5Y [9]): Active | Activity (MCF7 [10]): Active | Activity (MCF7 [2]): >70% | Activity (SH-SY5Y [3]): >70% | Activity (SH-SY5Y [11]): Active | Activity (SH-SY5Y [12]): Active | Activity (MCF7 [4]): Active | Activity (MCF7 [5]): Active | Activity (SH-SY5Y [6]): Active

O=C1C(c2ccccc2)=C(c2ccccc2)C[C@H]2C[C@@H](O)CN12
Activity (SH-SY5Y [1]): Active | Activity (MCF7 [2]): Active | Activity (SH-SY5Y [3]): Active | Activity (MCF7 [4]): Active | Activity (MCF7 [5]): Active | Activity (SH-SY5Y [6]): Active

O=C1C(c2ccccc2)=C(c2ccccc2)C[C@@H]2C[C@@H](O)CN12
Activity (SH-SY5Y [1]): Active | Activity (MCF7 [2]): Active | Activity (SH-SY5Y [3]): Active | Activity (MCF7 [4]): Active | Activity (MCF7 [5]): Active | Activity (SH-SY5Y [6]): Active

O=C(C[C@H]1C[C@@H](O)CN1C(=O)Cc1ccccc1)c1ccc(-c2ccccc2)cc1
Activity (SH-SY5Y [1]): Active | Activity (SH-SY5Y [13]): Active | Activity (SH-SY5Y [14]): Active | Activity (SH-SY5Y [15]): Active | Activity (MCF7 [16]): Active | Activity (SH-SY5Y [17]): Active | Activity (MCF7 [18]): Active | Activity (MCF7 [4]): Active | Activity (MCF7 [19]): Active | Activity (MCF7 [20]): Active | Activity (MCF7 [21]): Active

O=C1C(c2ccccc2)=C(c2ccc(Br)cc2)C[C@@H]2C[C@@H](O)CN12
Activity (SH-SY5Y [1]): Active | Activity (MCF7 [2]): Active | Activity (SH-SY5Y [3]): Active | Activity (MCF7 [4]): Active | Activity (MCF7 [5]): Active | Activity (SH-SY5Y [6]): Active

O=C(C[C@@H]1C[C@@H](O)CN1C(=O)Cc1ccccc1)c1ccc(-c2ccccc2)cc1
Activity (SH-SY5Y [1]): Active | Activity (MCF7 [4]): Active

Source: ChEMBL document CHEMBL2021758, “Synthesis of indolizidinone analogues of cytotoxic alkaloids: monocyclic precursors are also active” (2012)
